In patent publication US8022217B2, “Compounds suitable as modulators of HDL” (Cadila Healthcare Limited, priority 2006, dated 2011):
Structures can show the parent of a compound that is named as a salt.

Each molecule was assayed against T1, recombinant CETP (Homo sapiens, UniProt P11597) (assay: CETP in-vitro assay (Scintillation Proximity Assay, transfer of [3H] cholesteryl ester from HDL to biotinylated LDL)). Conditions: not given.
T1 sequence (P11597 18-493): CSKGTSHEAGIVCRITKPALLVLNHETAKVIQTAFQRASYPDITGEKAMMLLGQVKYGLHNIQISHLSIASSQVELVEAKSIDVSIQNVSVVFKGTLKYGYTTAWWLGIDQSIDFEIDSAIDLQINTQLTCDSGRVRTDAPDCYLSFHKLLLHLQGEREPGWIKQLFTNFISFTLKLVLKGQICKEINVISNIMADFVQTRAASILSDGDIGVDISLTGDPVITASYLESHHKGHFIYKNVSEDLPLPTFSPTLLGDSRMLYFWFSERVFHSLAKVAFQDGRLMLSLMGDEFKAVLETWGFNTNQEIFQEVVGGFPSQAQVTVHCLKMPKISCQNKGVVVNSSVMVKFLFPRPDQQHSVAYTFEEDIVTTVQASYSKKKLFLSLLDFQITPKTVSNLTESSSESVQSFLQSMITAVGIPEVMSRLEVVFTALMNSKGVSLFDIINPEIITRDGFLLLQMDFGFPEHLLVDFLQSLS
Assay type: biochemical
Description: This assay used a commercially available Scintillation Proximity Assay kit (Amersham TRKQ7015) with modifications for measuring CETP activity. [^3H] Cholesteryl ester HDL was mixed with non radioactive HDL prepared from human plasma at an appropriate ratio in order to ensure a proper transfer of cholesteryl esters. Transfer of [^3H] Cholesteryl esters from high density lipoprotein (HDL) to biotinylated low density lipoprotein (LDL) was measured following incubation of donor and acceptor particles in the presence of recombinant CETP. Following overnight incubation, the reaction was terminated and transfer was measured in a single step addition of streptavidin coated beads formulated in an assay terminal buffer. The rate of increase in signal was proportional to the transfer of [^3H] Cholesteryl ester by CETP.
In the case of `CC(C)(C)c1ccc(CN(CCc2ccc(Cl)c(Cl)c2)C(=O)c2cc(F)cc3c2NCCC3)cc1.Cl` [Compound 50, 6-Fluoro-1,2,3,4-tetrahydro-quinoline-8-carboxylic acid (4-tert-butyl-benzyl)-[2-(3,4-dichloro-phenyl)-ethyl]-amide; hydrochloride salt], the “% of CETP inhibition at 10 μmole concentration” value is reported as 90%.

Same assay, conditions: 10 μmole concentration
For `CC(C)(C)c1ccc(CN(CCc2ccc(F)cc2)C(=O)c2cccc3c2NCCC3)cc1` [Compound 1, 1,2,3,4-Tetrahydro-quinoline-8-carboxylic acid (4-tert-butyl-benzyl)-(2-(4-fluoro-phenyl)-ethyl)-amide], the inhibition at 10 µM was 43%. `CC(C)(C)c1ccc(CN(CCc2ccc(F)cc2)C(=O)c2ccc(Cl)c3c2NCCC3)cc1` [Compound 7, 5-Chloro-1,2,3,4-tetrahydro-quinoline-8-carboxylic acid (4-tert-butyl-benzyl)-[2-(4-fluoro-phenyl)-ethyl]-amide] showed an inhibition at 10 µM of 67%. Molecule `CC(C)(C)c1ccc(CN(CCc2cccc(Cl)c2)C(=O)c2cccc3c2NCCC3)cc1` [Compound 10, 1,2,3,4-Tetrahydro-quinoline-8-carboxylic acid (4-tert-butyl-benzyl)-[2-(3-chloro-phenyl)-ethyl]-amide] has an inhibition at 10 µM of 57%. In the case of `Cc1cc2c(c(C(=O)N(CCc3ccc(F)cc3)Cc3ccc(C(C)(C)C)cc3)c1)NCCC2` [Compound 13, 6-Methyl-1,2,3,4-tetrahydro-quinoline-8-carboxylic acid (4-tert-butyl-benzyl)-[2-(4-fluoro-phenyl)-ethyl]-amide], the inhibition at 10 µM is reported as 80%. In the case of `O=C(c1cccc2c1NCCC2)N(CCc1ccc(F)cc1)Cc1ccc(C(F)(F)F)cc1` [Compound 14, 1,2,3,4-Tetrahydro-quinoline-8-carboxylic acid [2-(4-fluoro-phenyl)-ethyl]-(4-trifluoromethyl-benzyl)-amide], the inhibition at 10 µM is reported as 74%. `COc1ccc(CCN(Cc2ccc(C(C)(C)C)cc2)C(=O)c2cccc3c2NCCC3)cc1` [Compound 17, 1,2,3,4-Tetrahydro-quinoline-8-carboxylic acid (4-tert-butyl-benzyl)-[2-(4-methoxy-phenyl)-ethyl]-amide] was tested, and the inhibition at 10 µM was 92%. For `CC(C)(C)c1ccc(CN(Cc2cccc(Cl)c2)C(=O)c2cccc3c2NCCC3)cc1` [Compound 21, 1,2,3,4-Tetrahydro-quinoline-8-carboxylic acid (4-tert-butyl-benzyl)-(3-chloro-benzyl)-amide], the inhibition at 10 µM was 77%. `CC(C)(C)c1ccc(CN(CCc2ccccc2F)C(=O)c2cccc3c2NCCC3)cc1` [Compound 22, 1,2,3,4-Tetrahydro-quinoline-8-carboxylic acid (4-tert-butyl-benzyl)-[2-(2-fluoro-phenyl)-ethyl]-amide] showed an inhibition at 10 µM of 94%. `CC(C)(C)c1ccc(CN(CCc2ccc(F)cc2)C(=O)c2cc(F)cc3c2NCCC3)cc1` [Compound 24, 6-Fluoro-1,2,3,4-tetrahydro-quinoline-8-carboxylic acid (4-tert-butyl-benzyl)-[2-(4-fluoro-phenyl)-ethyl]-amide] showed an inhibition at 10 µM of 76%. In the case of `CCN(CC)c1ccc(CCN(Cc2ccc(C(C)(C)C)cc2)C(=O)c2cccc3c2NCCC3)cc1` [Compound 28, 1,2,3,4-Tetrahydro-quinoline-8-carboxylic acid (4-tert-butyl-benzyl)-[2-(4-diethylamino-phenyl)-ethyl]-amide], the inhibition at 10 µM is reported as 80%. For `Cc1ccc(CN(CCc2ccc(Cl)c(Cl)c2)C(=O)c2cccc3c2NCCC3)cc1` [Compound 29, 1,2,3,4-Tetrahydro-quinoline-8-carboxylic acid [2-(3,4-dichloro-phenyl)-ethyl]-(4-methyl-benzyl)-amide], the inhibition at 10 µM was 83%. For `Cc1cc2c(c(C(=O)N(CCc3ccc(Cl)c(Cl)c3)Cc3ccc(C(C)(C)C)cc3)c1)NCCC2` [Compound 31, 6-Methyl-1,2,3,4-tetrahydro-quinoline-8-carboxylic acid (4-tert-butyl-benzyl)-[2-(3,4-dichloro-phenyl)-ethyl]-amide], the inhibition at 10 µM was 82%. `CC(C)(C)c1ccc(CN(CCc2ccc(Cl)c(Cl)c2)C(=O)c2cc(F)cc3c2NCCC3)cc1` [Compound 32, 6-Fluoro-1,2,3,4-tetrahydro-quinoline-8-carboxylic acid (4-tert-butyl-benzyl)-[2-(3,4-dichloro-phenyl)-ethyl]-amide] gave an inhibition at 10 µM of 82%. `CC(C)(C)c1ccc(CN(CCc2ccc(Cl)c(Cl)c2)C(=O)c2cc(Cl)cc3c2NCCC3)cc1` [Compound 35, 6-Chloro-1,2,3,4-tetrahydro-quinoline-8-carboxylic acid (4-tert-butyl-benzyl)-[2-(3,4-dichloro-phenyl)-ethyl]-amide] was tested, and the inhibition at 10 µM was 85%. With `CC(C)(C)c1ccc(CN(CCc2cccc3ccccc23)C(=O)c2cccc3c2NCCC3)cc1` [Compound 37, 1,2,3,4-Tetrahydro-quinoline-8-carboxylic acid (4-tert-butyl-benzyl)-(2-naphthalen-1-yl-ethyl)-amide] the inhibition at 10 µM was 86%. Work on `CC(C)(C)c1ccc(CN(CCc2ccc3c(c2)OCO3)C(=O)c2cccc3c2NCCC3)cc1` [Compound 38, 1,2,3,4-Tetrahydro-quinoline-8-carboxylic acid (2-benzo[1,3]dioxol-5-yl-ethyl)-(4-tert-butyl-benzyl)-amide] yielded an inhibition at 10 µM of 78%. `CC(C)(C)c1ccc(CN(CCc2ccc(F)c(F)c2)C(=O)c2cc(Cl)cc3c2NCCC3)cc1` [Compound 40, 6-Chloro-1,2,3,4-tetrahydro-quinoline-8-carboxylic acid (4-tert-butyl-benzyl)-[2-(3,4-difluoro-phenyl)-ethyl]-amide] was tested, and the inhibition at 10 µM was 89%. `CC(C)(C)c1ccc(CN(CCc2ccc(O)cc2)C(=O)c2cccc3c2NCCC3)cc1` [Compound 42, 1,2,3,4-Tetrahydro-quinoline-8-carboxylic acid (4-tert-butyl-benzyl)-[2-(4-hydroxy-phenyl)-ethyl]-amide] was tested, and the inhibition at 10 µM was 99%. `COc1ccc(CCN(Cc2ccc(C(C)(C)C)cc2)C(=O)c2cccc3c2NCCC3)cc1OC` [Compound 43, 1,2,3,4-Tetrahydro-quinoline-8-carboxylic acid (4-tert-butyl-benzyl)-[2-(3,4-dimethoxy-phenyl)-ethyl]-amide] gave an inhibition at 10 µM of 80%. Molecule `CC(C)(C)c1ccc(CN(CCc2ccc(Cl)c(F)c2)C(=O)c2cc(Cl)cc3c2NCCC3)cc1` [Compound 45, 6-Chloro-1,2,3,4-tetrahydro-quinoline-8-carboxylic acid (4-tert-butyl-benzyl)-[2-(4-chloro-3-fluoro-phenyl)-ethyl]-amide] has an inhibition at 10 µM of 88%. Molecule `CC(C)(C)c1ccc(CN(CCc2ccc(O[Si](C)(C)C)cc2)C(=O)c2cccc3c2NCCC3)cc1` [Compound 47, 1,2,3,4-Tetrahydro-quinoline-8-carboxylic acid (4-tert-butyl-benzyl)-[2-(4-trimethylsilanyloxy-phenyl)-ethyl]-amide] has an inhibition at 10 µM of 76%. `CC(C)(C)c1ccc(CN(CCc2ccc(Cl)c(Cl)c2)C(=O)c2cccc3c2NCCC3)cc1` [Compound 48, 1,2,3,4-Tetrahydro-quinoline-8-carboxylic acid (4-tert-butyl-benzyl)-[2-(3,4-dichloro-phenyl)-ethyl]-amide; hydrochloride salt] showed an inhibition at 10 µM of 79%.

These molecules were tested against T1, recombinant CETP in the same assay as above. Conditions: CETP inhibition in human plasma.
Assay type: biochemical
`CC(C)(C)c1ccc(CN(CCc2ccccc2F)C(=O)c2cccc3c2NCCC3)cc1` [Compound 22, 1,2,3,4-Tetrahydro-quinoline-8-carboxylic acid (4-tert-butyl-benzyl)-[2-(2-fluoro-phenyl)-ethyl]-amide] showed an IC50 of 455 nM. `CC(C)(C)c1ccc(CN(CCc2ccc(O[Si](C)(C)C)cc2)C(=O)c2cccc3c2NCCC3)cc1` [Compound 47, 1,2,3,4-Tetrahydro-quinoline-8-carboxylic acid (4-tert-butyl-benzyl)-[2-(4-trimethylsilanyloxy-phenyl)-ethyl]-amide] gave an IC50 of 167 nM. `CC(C)(C)c1ccc(CN(CCc2ccc(Cl)c(Cl)c2)C(=O)c2cc(F)cc3c2NCCC3)cc1.Cl` [Compound 50, 6-Fluoro-1,2,3,4-tetrahydro-quinoline-8-carboxylic acid (4-tert-butyl-benzyl)-[2-(3,4-dichloro-phenyl)-ethyl]-amide; hydrochloride salt] showed an IC50 of 30 nM.
